According to ChEMBL document CHEMBL1255390, “Clinical pharmacodynamics of cefepime in patients infected with Pseudomonas aeruginosa” (2010):
≈ marks a conversion by molar mass, not a printed value.

How the values were obtained:
Type in all cases: functional
[1] = fT>MIC in Pseudomonas aeruginosa infected patient at 2 g,iv administered as 3 hrs infusion every 8 hrs
[2] = fT>MIC in Pseudomonas aeruginosa infected patient
Pseudomonas aeruginosa = assay: Antimicrobial activity against Pseudomonas aeruginosa isolated from infected patient by Etest method

Q: Which “fT>MIC” value [1] does the source give for `CO/N=C(\C(=O)N[C@@H]1C(=O)N2C(C(=O)[O-])=C(C[N+]3(C)CCCC3)CS[C@H]12)c1csc(N)n1` [CEFEPIME] here?
A: The value was >60%.

Q: What about the “fT>MIC” value [2] of the same molecule?
A: Its value is 85.2%.

Q: What about the MIC50 (Pseudomonas aeruginosa) of the same molecule?
A: Its MIC50 is 3 µg/mL (≈ 6.24 µM).

Q: And the MIC90 (Pseudomonas aeruginosa)?
A: Its MIC90 is 16 µg/mL (≈ 33.3 µM).
